From ChEMBL document CHEMBL1201862, “PubChem BioAssay data set” (2004)
Calls of active or inactive are those of the source.

Key:
Cytochrome P450 3A4 = Cytochrome P450 3A4 (Homo sapiens, UniProt P08684); settings: Potency;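 also: confirmatory qHTS run detecting inhibitors and substrates of CYP3A4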
[1] = target: T1, Neuropeptide Y receptor type 2 (Homo sapiens, UniProt P49146); assay: Fluorescence-based cell-based high-throughput dose response assay for agonists of NPY-Y2. [Related pubchem assays: 1703 (Screening assay (CNGC inhibitors).), 1359 (Screening assay (NPY-Y2 potentiators or agonists).), 1304 (Screening assay (NPY-Y1 potentiators or agonists).), 1710 (Screening assay (NPY-Y2 agonists).), 1791 (Summary AID.)]; assay type: functional
T1 sequence (P49146 whole entry): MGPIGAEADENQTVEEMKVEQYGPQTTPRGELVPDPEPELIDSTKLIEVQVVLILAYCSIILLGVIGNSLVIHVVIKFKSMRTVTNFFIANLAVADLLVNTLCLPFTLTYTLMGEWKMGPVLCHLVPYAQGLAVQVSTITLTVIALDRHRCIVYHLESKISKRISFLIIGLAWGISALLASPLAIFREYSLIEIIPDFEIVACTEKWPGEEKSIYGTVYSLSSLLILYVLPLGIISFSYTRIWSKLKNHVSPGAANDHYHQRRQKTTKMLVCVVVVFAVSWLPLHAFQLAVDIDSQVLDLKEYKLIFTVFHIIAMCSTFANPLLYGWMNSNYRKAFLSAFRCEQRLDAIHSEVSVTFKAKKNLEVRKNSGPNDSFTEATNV

[2] = target: T2, Neuropeptide Y receptor type 1 (Homo sapiens, UniProt P25929); assay: Fluorescence-based counterscreen for agonists of NPY-Y2: cell-based high-throughput dose response assay for agonists of NPY-Y1.; assay type: functional
T2 sequence (P25929 whole entry): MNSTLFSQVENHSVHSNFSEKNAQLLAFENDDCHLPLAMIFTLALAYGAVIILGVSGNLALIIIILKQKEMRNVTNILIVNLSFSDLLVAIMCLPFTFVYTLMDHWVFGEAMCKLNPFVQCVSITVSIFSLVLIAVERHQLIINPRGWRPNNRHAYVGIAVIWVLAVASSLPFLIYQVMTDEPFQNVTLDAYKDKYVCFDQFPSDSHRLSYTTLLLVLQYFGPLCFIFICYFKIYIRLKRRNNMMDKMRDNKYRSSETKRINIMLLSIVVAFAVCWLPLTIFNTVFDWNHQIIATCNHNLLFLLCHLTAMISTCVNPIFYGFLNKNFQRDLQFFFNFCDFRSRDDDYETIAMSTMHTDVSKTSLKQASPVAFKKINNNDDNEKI

HEK293 = assay: Fluorescence-based counterscreen for potentiators or agonists of NPY-Y2: cell-based high-throughput dose response assay to identify inhibitors of cyclic nucleotide gated ion channel (CNGC) activity. In this assay, the parental HEK293 cell line transfected with a cyclic-nucleotide gated ion channel (CNGC)-based cAMP sensor is used to measure inhibition of isoproterenol-induced CNGC activity by test compound.; assay type: functional; settings: Homo sapiens
[3] = target: T3, Eukaryotic translation initiation factor 2-alpha kinase 3 (Homo sapiens, UniProt Q9NZJ5); assay: Dose response cell-based high-throughput screening assay to measure PERK inhibition. [Related pubchem assays: 1416 ]; assay type: functional
T3 sequence (Q9NZJ5 whole entry): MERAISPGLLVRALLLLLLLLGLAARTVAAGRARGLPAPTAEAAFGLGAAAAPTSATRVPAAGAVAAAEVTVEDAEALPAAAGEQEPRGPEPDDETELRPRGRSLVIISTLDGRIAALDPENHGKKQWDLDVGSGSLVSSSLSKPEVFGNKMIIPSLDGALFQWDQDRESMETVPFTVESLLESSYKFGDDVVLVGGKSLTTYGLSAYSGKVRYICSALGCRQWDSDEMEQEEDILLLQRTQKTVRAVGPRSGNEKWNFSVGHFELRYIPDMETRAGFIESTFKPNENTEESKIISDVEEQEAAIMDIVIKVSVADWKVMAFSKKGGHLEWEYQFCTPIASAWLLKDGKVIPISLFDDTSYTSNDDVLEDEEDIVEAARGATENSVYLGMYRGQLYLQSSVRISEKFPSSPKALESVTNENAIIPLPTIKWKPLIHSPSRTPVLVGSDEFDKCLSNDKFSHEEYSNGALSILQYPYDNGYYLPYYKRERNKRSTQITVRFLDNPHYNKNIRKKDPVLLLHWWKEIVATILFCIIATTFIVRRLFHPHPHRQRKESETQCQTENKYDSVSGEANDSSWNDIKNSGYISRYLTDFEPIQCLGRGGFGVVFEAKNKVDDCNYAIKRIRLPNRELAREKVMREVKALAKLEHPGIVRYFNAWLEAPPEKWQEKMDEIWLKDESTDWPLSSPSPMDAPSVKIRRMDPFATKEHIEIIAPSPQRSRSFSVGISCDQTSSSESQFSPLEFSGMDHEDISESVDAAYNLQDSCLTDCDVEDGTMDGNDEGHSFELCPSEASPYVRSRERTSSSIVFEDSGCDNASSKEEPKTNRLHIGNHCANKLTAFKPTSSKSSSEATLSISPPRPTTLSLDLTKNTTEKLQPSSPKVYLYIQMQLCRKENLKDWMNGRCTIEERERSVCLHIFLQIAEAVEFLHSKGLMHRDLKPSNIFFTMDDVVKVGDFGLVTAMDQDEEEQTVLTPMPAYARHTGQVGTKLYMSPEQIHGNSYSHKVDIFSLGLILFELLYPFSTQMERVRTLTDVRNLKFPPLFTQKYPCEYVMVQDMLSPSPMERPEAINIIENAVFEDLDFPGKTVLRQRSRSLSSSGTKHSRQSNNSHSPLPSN

[4] = target: T3, Eukaryotic translation initiation factor 2-alpha kinase 3; assay: Counterscreen assay for PERK inhibitors: Dose response cell-based high throughput screening assay to measure inhibition of PERK at 6 hours. [Related pubchem assays: 1522, 1416 ]; assay type: functional
[5] = target: Acyl-homoserine lactone acylase PvdQ (Pseudomonas aeruginosa (strain LESB58), UniProt Q9I194); assay: PvdQ acylase enzyme activity blockers – biochemical, fluorescence, plate reader and imaging, cherry-picks, dose response (AID 493231)
Acyl-homoserine lactone acylase PvdQ, sequence (Q9I194 24-193 limits assumed): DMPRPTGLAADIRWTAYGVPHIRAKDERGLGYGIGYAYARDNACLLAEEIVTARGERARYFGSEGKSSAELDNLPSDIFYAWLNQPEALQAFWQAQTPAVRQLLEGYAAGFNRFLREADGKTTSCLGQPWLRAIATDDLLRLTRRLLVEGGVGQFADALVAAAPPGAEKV
Acyl-homoserine lactone acylase PvdQ, sequence (Q9I194 217-762 limits assumed): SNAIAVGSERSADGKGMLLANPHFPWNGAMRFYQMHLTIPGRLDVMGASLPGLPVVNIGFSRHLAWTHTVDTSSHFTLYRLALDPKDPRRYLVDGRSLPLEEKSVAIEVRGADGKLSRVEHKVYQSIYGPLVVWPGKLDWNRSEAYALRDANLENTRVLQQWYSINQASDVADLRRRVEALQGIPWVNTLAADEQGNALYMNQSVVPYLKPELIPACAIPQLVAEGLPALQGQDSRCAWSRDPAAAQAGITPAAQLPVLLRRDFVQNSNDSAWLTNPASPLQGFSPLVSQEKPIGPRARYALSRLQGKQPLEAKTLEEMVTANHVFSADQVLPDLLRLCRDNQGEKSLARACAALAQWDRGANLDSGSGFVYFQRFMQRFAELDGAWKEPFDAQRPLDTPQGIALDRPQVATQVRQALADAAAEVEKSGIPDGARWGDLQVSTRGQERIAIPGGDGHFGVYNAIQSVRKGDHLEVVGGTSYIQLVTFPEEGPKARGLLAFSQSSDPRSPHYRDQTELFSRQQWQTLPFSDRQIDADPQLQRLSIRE

[6] = target: Lysosomal acid glucosylceramidase (Homo sapiens, UniProt P04062); assay: Dose response cell-based high throughput screening assay to identify enhancers of beta-glucosidase activity. [Related pubchem assays: 784 ]; assay type: functional
Lysosomal acid glucosylceramidase, sequence (P04062 whole entry): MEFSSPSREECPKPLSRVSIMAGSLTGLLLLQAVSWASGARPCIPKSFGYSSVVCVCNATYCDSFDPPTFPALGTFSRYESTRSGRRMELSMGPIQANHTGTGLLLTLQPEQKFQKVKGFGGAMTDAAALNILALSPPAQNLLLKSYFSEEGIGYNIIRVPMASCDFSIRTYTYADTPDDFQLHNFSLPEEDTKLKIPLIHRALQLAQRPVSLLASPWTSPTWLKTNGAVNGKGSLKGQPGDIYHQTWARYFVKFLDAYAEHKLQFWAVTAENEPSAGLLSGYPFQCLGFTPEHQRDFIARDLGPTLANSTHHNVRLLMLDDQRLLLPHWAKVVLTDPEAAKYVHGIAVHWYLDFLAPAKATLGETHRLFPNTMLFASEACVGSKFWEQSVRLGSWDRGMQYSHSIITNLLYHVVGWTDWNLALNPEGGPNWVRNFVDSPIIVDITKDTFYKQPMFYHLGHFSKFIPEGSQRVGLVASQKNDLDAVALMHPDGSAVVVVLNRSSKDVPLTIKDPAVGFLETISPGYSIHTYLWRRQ

cells = assay type: functional
Bcl-2-like protein 10 = Bcl-2-like protein 10 (Homo sapiens, UniProt Q9HD36); assay: Bcl-B/TR3 peptide binding disruption – biochemical, fluorescence polarization, FITC-TR3 peptide, selectivity assay for Bfl-1 inhibitor project, primary screen (AID 748);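 also: fluorescence polarization from a fluorescein-labelled TR3 peptide binding purified Bcl-B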
Bcl-2-like protein 10, sequence (Q9HD36 whole entry): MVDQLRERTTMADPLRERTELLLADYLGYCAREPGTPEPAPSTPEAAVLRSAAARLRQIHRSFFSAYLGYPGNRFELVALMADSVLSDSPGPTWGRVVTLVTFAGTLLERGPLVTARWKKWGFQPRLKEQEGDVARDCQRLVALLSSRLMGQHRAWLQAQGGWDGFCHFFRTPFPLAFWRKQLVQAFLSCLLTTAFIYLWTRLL

[7] = target: Melanin-concentrating hormone receptor 1 (Homo sapiens, UniProt Q99705); assay: Late-stage fluorescence-based counterscreen for antagonists of the G-protein coupled receptor 7 (GPR7): cell-based dose response assay to identify antagonists of the melanin-concentrating hormone receptor 1 (MCHR1). [Related pubchem assays (depositor defined):AID1861, AID1880, AID1952, AID2148, AID2251, AID2257, AID485339]; assay type: functional;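 also: stimulated with 30 nM MCH peptide agonist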
Melanin-concentrating hormone receptor 1, sequence (Q99705 whole entry): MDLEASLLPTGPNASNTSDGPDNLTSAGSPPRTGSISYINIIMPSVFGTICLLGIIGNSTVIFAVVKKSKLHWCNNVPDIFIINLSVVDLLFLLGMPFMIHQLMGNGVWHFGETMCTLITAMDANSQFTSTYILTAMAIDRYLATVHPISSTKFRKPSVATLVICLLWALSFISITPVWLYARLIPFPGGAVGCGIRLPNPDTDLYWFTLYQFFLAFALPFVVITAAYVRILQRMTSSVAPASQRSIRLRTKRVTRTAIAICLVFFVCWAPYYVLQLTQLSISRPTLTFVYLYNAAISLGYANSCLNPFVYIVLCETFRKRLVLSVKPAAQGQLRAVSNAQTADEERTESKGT

Cytochrome P450 3A4, sequence (P08684 whole entry): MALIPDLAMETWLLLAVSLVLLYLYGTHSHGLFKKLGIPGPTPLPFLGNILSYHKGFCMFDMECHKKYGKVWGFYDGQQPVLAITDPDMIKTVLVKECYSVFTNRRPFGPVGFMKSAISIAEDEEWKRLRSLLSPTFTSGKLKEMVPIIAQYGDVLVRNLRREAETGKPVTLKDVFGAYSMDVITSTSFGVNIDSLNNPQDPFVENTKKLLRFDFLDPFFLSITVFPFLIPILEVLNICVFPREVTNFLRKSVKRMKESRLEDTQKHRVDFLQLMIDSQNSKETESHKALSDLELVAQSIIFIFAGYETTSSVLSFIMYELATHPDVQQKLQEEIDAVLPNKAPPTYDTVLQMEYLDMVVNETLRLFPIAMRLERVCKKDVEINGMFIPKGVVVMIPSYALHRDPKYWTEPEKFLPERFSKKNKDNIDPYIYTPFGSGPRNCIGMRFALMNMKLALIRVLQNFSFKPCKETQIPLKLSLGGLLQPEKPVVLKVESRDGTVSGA

## CCC(C(=O)O)C1CCC(C)C(C(C)C(O)C(C)C(=O)C(CC)C2OC3(C=CC(O)[C@@]4(CC[C@](C)(C5CC[C@@](O)(CC)C(C)O5)O4)O3)C(C)CC2C)O1 (stereo partly drawn)
Cytochrome P450 3A4
  AC50: 39.8 µM (inconclusive)

## CN(Cc1ccccc1)C(=O)CCNC(=O)Cn1cnc2ccccc2c1=O
[1]
  EC50: > 35.4 µM (not active)
[2]
  EC50: > 35.4 µM (not active)
HEK293
  EC50: > 35.4 µM (not active)

## Cc1cnc(O)c([N+](=O)[O-])c1
[3]
  EC50: > 55.7 µM (not active)
[4]
  EC50: > 55.7 µM (not active)

## O=C(OCc1nc2ccccc2s1)c1ccco1
[5]
  AC50: 30.3 µM (active)

## Cc1ccccc1OCC(O)CN1CCC(C)CC1 (stereo not drawn)
[1]
  EC50: 33.3 µM (not active)
[2]
  EC50: 21.8 µM (not active)
HEK293
  EC50: 4.67 µM (active)

## CCOC(=O)c1c(C)n(C)c2ccc(OC(C)C(=O)OC)cc12 (stereo not drawn)
[6]
  EC50: > 10 µM (not active)
cells
  IC50: 20.9 µM (active)

## COC(=O)[C@@H]1C[C@@]2(O)[C@H](O)[C@H](O)[C@H](O)C[C@H]2N1Cc1cc(OC)cc(OC)c1
Cytochrome P450 3A4
  AC50: 15.8 µM (inconclusive)

## Cc1csc2nc(CNS(=O)(=O)N(C)C)cn12
Bcl-2-like protein 10
  IC50: > 100 µM (inactive)

## COCc1nnc(NC(=O)c2ccc(S(=O)(=O)N(C)C3CCCCC3)cc2)o1
[6]
  EC50: > 10 µM (not active)

## O=C(NC1CCCC1)c1cccc(Cl)c1
[5]
  AC50: 3.13 µM (active)

## COc1ccc(Oc2c(Cl)cnn(-c3ccc(C)cc3)c2=O)cc1OC
[7]
  IC50: 8.2 µM (active)

## COc1ccc(Oc2c(Cl)cnn(-c3cccc(C(C)C)c3)c2=O)cc1
[7]
  IC50: 1.7 µM (active)
